According to the NIST ThermoML archive (doi:10.1016/j.tca.2015.08.023):
± gives the expanded uncertainty stated by the source.

Tests used:
[1] = 101.33 kPa, Liquid, Vibrating tube method
[2] = refractive index (Na D-line) (dimensionless); conditions: 101.33 kPa, Liquid, Standard Abbe refractometry

| Compound | mass density ([1]; 298.15 K) | mass density ([1]; 308.15 K) | mass density ([1]; 318.15 K) | refractive index ([2]; 298.15 K) | refractive index ([2]; 308.15 K) | refractive index ([2]; 318.15 K) |
| --- | --- | --- | --- | --- | --- | --- |
| CCc1ccccc1 [ethylbenzene] | 862.7 ± 2 kg/m3 | 853.8 ± 2 kg/m3 | 844.8 ± 2 kg/m3 | 1.4928 ± 0.0005 | 1.4879 ± 0.0005 | 1.4832 ± 0.0005 |
| CCCCCCCC [octane] | 698.6 ± 2 kg/m3 | 690.5 ± 2 kg/m3 | 682.2 ± 2 kg/m3 | 1.3948 ± 0.0005 | 1.3904 ± 0.0005 | 1.3868 ± 0.0005 |
| CCCc1ccccc1 [propylbenzene] | 857.9 ± 2.1 kg/m3 | 849.4 ± 2.1 kg/m3 | 840.9 ± 2.1 kg/m3 | 1.4892 ± 0.0006 | 1.4844 ± 0.0006 | 1.48 ± 0.0006 |
